Results from article PMC5343011, “Phenol-Soluble Modulin α Peptide Toxins from Aggressive Staphylococcus aureus Induce Rapid Formation of Neutrophil Extracellular Traps through a Reactive Oxygen Species-Independent Pathway” (Frontiers in Immunology, 2017).

Legend:
[1] = test system: Formyl peptide receptor (FPR) 1 / FPR2; details: receptor through which the peptide activates neutrophils; dash = inactive; cited from earlier work
From the text: Table 1 Peptide sequences and receptor preferences of PSMα2. | column: Receptor preference^a

[2] = test system: neutrophils; experiment: Sytox Green DNA release / NET formation; type: cell-based, human
Description: Peripheral blood neutrophils were isolated from 1-day-old buffy coats from healthy blood donors or from peripheral blood from patients and healthy controls. Neutrophil separation was performed as first described by Boyum ([23]). Briefly, after dextran, sedimentation at 1 × g the suspension was centrifuged on Ficoll-Paque, and the remaining erythrocytes were lysed by hypotonic treatment. The neutrophils were then washed in Krebs Ringer phosphate buffer (KRG) and finally resuspended in KRG supplemented with Ca^2+ (1 mM) and kept on melting ice until used. Buffy coats were obtained from the Sahlgrenska University Hospital blood bank after deidentification, and according to the Swedish legislation section code 4§ 3 p SFS2003:460, no informed consent is needed. Peripheral blood from one MPO-deficient individual, one patient with Papillon-Lefèvre syndrome, and healthy controls were obtained after written informed consent, and the study was approved by the Regional Ethical Review Board in Gothenburg, Sweden.
Cells (5 × 10^4 cells/well) in RPMI (without phenol red) and the Sytox Green DNA stain (1.25 μM; Molecular Probes) were added to black 96-well plates and incubated at 37°C and 5% CO2 ([5]). Inhibitors, PBP10 (CASLO Laboratory) or diphenyleneiodonium chloride (DPI; Sigma-Aldrich), were preincubated with cells for 10 min at 37°C and 5% CO2 prior to stimulation. Sytox Green fluorescence was measured at indicated time points at 485/535 nm in a Mithras LB940 (Berthold Technologies) or in a CLARIOstar plate reader (BMG Labtech).

[3] = test system: neutrophils; experiment: Nuclear membrane integrity (SUN2 staining, confocal microscopy); type: cell-based, human; details: SUN2 and DNA staining, three independent experiments
Description: Neutrophils or human A375 melanoma cells (2.5 × 10^5 cells/well) were suspended in RPMI and added to poly-lysine-coated coverslips. After stimulation with PMA (50 nM; Sigma-Aldrich) or PSMα (indicated concentrations), the cells were incubated at 37°C in the presence of 5% CO2 or at 4°C for indicated time. To visualize NETs, samples were fixed in 4% paraformaldehyde for 30 min at room temperature and stained with antibodies against MPO (DAKO), NE (Calbiochem), or Histone-1 (Acris) followed by secondary antibody staining. Finally, the coverslips were incubated with DAPI (1 μg/ml) for 5 min and then mounted in ProLong Gold antifade (Molecular Probes). For nuclear morphology experiments, neutrophils were incubated with PSMα2 for 10 min or with PMA for 30 min or 2 h, the cells were fixed on ice with 4% paraformaldehyde, permeabilized with cold acetone and methanol (1:1) for 5 min, and stained with SUN2 antibody (Abcam) followed by secondary antibody staining. To visualize microbes in the NETs, we used green fluorescent protein (GFP)-expressing Candida albicans, strain CAI4 containing a C. albicans-specific pENO1-GFP-CyC1t plasmid ([26]), or S. aureus, strain RN4220 containing the pCN-GFP plasmid that was a kind gift from Dr. Maria Lerm (Linköping University, Sweden). […]

[4] = test system: A375 melanoma cells; experiment: Microscopic visualization of melanoma cells (DAPI); type: cell-based, human; details: PSMα2 or PSMα3 2.5 μM for 1 h, PMA 50 nM for 3 h, three independent experiments
Description: The human melanoma cell line A375 was a kind gift from Professor Jonas A. Nilsson (Sahlgrenska Cancer Center, University of Gothenburg, Sweden). The cells were cultured in DMEM with 10% FCS, 100 U/ml penicillin, and 100 μg/ml streptomycin at 37°C and 5% CO2. Before being used experimentally, the cells were detached from the flasks’ surface by incubation with 0.25% trypsin in 37°C for 10 min followed by washing and resuspension in RPMI culture media.
Neutrophils or human A375 melanoma cells (2.5 × 10^5 cells/well) were suspended in RPMI and added to poly-lysine-coated coverslips. After stimulation with PMA (50 nM; Sigma-Aldrich) or PSMα (indicated concentrations), the cells were incubated at 37°C in the presence of 5% CO2 or at 4°C for indicated time. To visualize NETs, samples were fixed in 4% paraformaldehyde for 30 min at room temperature and stained with antibodies against MPO (DAKO), NE (Calbiochem), or Histone-1 (Acris) followed by secondary antibody staining. Finally, the coverslips were incubated with DAPI (1 μg/ml) for 5 min and then mounted in ProLong Gold antifade (Molecular Probes). […]

[5] = test system: neutrophils; details: cited from earlier work
From the text: Further, we have shown that enzymatic conversion of ROS by MPO inside granules is a prerequisite for PMA-induced NET formation ([10]). We thus investigated whether MPO was required for PSMα-induced NET formation by using neutrophils from a completely MPO-deficient donor [previously described in Ref. ([10])] that was sampled at two occasions (with nearly identical results). Neutrophils fro ...

[6] = test system: neutrophils; experiment: Plasma membrane disruption by lactate dehydrogenase (LDH) release; type: cell-based, human; details: 10 min, 37°C, relative to Triton X-100-treated samples, two independent experiments in triplicates
Description: Neutrophils (2 × 10^6 cells/ml) were incubated with PSMα2 or hexadecyltrimethylammonium bromide (CTAB, Sigma) for 10 min at 37°C. LDH was measured in the supernatants with cytotoxicity detection kit (LDH, Roche) as described in Ref. ([25]).

For “f-MGIIAGIIKFIKGLIE [1–16, shorter PSMα2 variant, amino acids 1–16]”, the Receptor preference [1] is listed as “FPR2”.
For “f-MGIIAGIIKFIK [1–12, shorter PSMα2 variant, amino acids 1–12]”, the Receptor preference [1] is listed as “FPR1/FPR2”.
For “f-MGIIAGIIKF [1–10, shorter PSMα2 variant, amino acids 1–10]”, the Receptor preference [1] is given as “FPR1”.
In the case of `c1ccc2c(c1)[I+]c1ccccc1-2` [DPI, diphenyleneiodonium chloride], the “Effect of NADPH oxidase inhibitor on PMA-induced NET formation” value ([2]; PMA 50 nM, DPI 10 μM, three independent experiments) is reported as “potently inhibited” and the “Effect of NADPH oxidase inhibitor on PSMα-induced NETs” value ([2]; PSMα2 2.5 μM, DPI 10 μM, three independent experiments) is reported as “without effect”.
In the case of `CCCCCCCCCCCCCC(=O)O[C@@H]1[C@@H](C)[C@@]2(O)[C@@H](C=C(CO)C[C@]3(O)C(=O)C(C)=C[C@@H]23)[C@@H]2C(C)(C)[C@]12OC(C)=O` [PMA, phorbol myristate acetate], the “Stimulation time at which disruption of nuclear membranes was first observed” value [3] is reported as 2 h, the “Extracellular DNA release from melanoma cells” value [4] is reported as “did not induce any DNA expulsion” and the “Time to increase in Sytox green fluorescence” value ([2]; PMA 50 nM, 37°C, three independent experiments) is reported as 3 h. For the same compound, the “NET formation by neutrophils from a completely MPO-deficient donor in response to PMA” value [5] was “unable to form NETs”.
In the case of “f-MGIIA [1–5, shorter PSMα2 variant, amino acids 1–5]”, the Receptor preference [1] is given as “Formyl peptide receptor (FPR) 1”.
In the case of `CCCCCCCCCCCCCCCC[N+](C)(C)C` [CTAB, hexadecyltrimethylammonium bromide], the “NET formation (Sytox Green fluorescence) after detergent treatment” value ([2]; 10 min, two independent experiments in triplicates) is reported as “did not cause NET formation” and the LDH release [6] is reported as “close to maximal”.
